Data taken from ChEMBL document CHEMBL1201862, “PubChem BioAssay data set” (2004).
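Assay format: 96-well plates, 48-hour exposure. GI50: concentration for 50% inhibition of growth.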 Active and inactive are the calls of the source. Cut-off read from the data, not from the text of the source: active = GI50 up to about 1.1 µM and inactive = higher.

Legend:
Test in all cases: NCI-60 cell line screen, 48 h
Malme-3M = test system: Malme-3M
OVCAR-4 = test system: OVCAR-4
OVCAR-3 = test system: OVCAR-3
SF-295 = test system: SF-295
SN12C = test system: SN12C
OVCAR-5 = test system: OVCAR-5
HCC 2998 = test system: HCC 2998
CAKI-1 = test system: CAKI-1
SK-OV-3 = test system: SK-OV-3
SNB-19 = test system: SNB-19
EKVX = test system: EKVX
SK-MEL-5 = test system: SK-MEL-5
CCRF-CEM = test system: CCRF-CEM
HCT-15 = test system: HCT-15
UACC-62 = test system: UACC-62
SNB-78 = test system: SNB-78
UO-31 = test system: UO-31

Measured: GI50

Cc1cccc2c1c1ccc3c(c1n2C)C(=O)C=CC3=O
active: CCRF-CEM 0.468 µM
inactive: Malme-3M 4.33 µM | OVCAR-4 11.8 µM | OVCAR-3 2.05 µM | SF-295 16.3 µM | SN12C 6.17 µM | OVCAR-5 15.9 µM | HCC 2998 18.2 µM | CAKI-1 3.2 µM | SK-OV-3 20.1 µM | SNB-19 16.7 µM | EKVX 18.9 µM | SK-MEL-5 14.8 µM | UACC-62 13.2 µM | SNB-78 16.2 µM | UO-31 3.4 µM
5.18 µM: HCT-15

Cc1ccc(N2C(=O)/C(=C3\Sc4c(nc(C)n(C)c4=O)N3c3ccccc3)SC2=S)cc1
> 100 µM: HCT-15
inactive: OVCAR-4 76.9 µM | SF-295 52.7 µM | SN12C 43.4 µM | OVCAR-5 > 100 µM | HCC 2998 > 100 µM | CAKI-1 41.3 µM | SK-OV-3 54.8 µM | SNB-19 49.4 µM | EKVX > 100 µM | SK-MEL-5 83.8 µM | CCRF-CEM > 100 µM | UACC-62 45.7 µM | SNB-78 40.8 µM | UO-31 > 100 µM

COC(=O)C(=O)C(CC(=O)Nc1cc(Cl)ccc1Cl)C(=O)OC (stereo unspecified)
> 100 µM: HCT-15
inactive: Malme-3M > 100 µM | OVCAR-4 > 100 µM | OVCAR-3 > 100 µM | SF-295 > 100 µM | SN12C > 100 µM | OVCAR-5 > 100 µM | HCC 2998 > 100 µM | CAKI-1 > 100 µM | SK-OV-3 > 100 µM | SNB-19 > 100 µM | EKVX > 100 µM | SK-MEL-5 > 100 µM | CCRF-CEM > 100 µM | UACC-62 > 100 µM | SNB-78 > 100 µM | UO-31 > 100 µM

COc1ccc(Cn2c(C)nc3c2C(=O)c2ccccc2C3=O)cc1
inactive: Malme-3M 9.46 µM | OVCAR-4 15.5 µM | OVCAR-3 9.84 µM | SF-295 9.48 µM | SN12C 13.9 µM | HCC 2998 18.8 µM | SK-OV-3 14.8 µM | SNB-19 22.3 µM | EKVX 13.8 µM | SK-MEL-5 7.71 µM | CCRF-CEM 4.05 µM | UACC-62 4.58 µM | SNB-78 16.1 µM | UO-31 10.5 µM
1.72 µM: HCT-15

COC(=O)C1=C(c2cc(OC)c(OC)c(OC)c2)OC(c2cc(OC)c(OC)c(OC)c2)C1 (stereo unspecified)
22.7 µM: HCT-15
inactive: Malme-3M 31.3 µM | OVCAR-4 12 µM | OVCAR-3 22.1 µM | SF-295 20.5 µM | SN12C 19.2 µM | OVCAR-5 33.3 µM | HCC 2998 20.1 µM | CAKI-1 21.8 µM | SK-OV-3 25.6 µM | SNB-19 19.5 µM | SK-MEL-5 16 µM | CCRF-CEM 24.1 µM | UACC-62 12.8 µM | SNB-78 51.8 µM | UO-31 12.3 µM

COc1ccc(C2=C(Cl)c3cc(OC)c(OC)cc3C2)cc1OC
inactive: Malme-3M > 100 µM | OVCAR-4 > 100 µM | SF-295 > 100 µM | SN12C > 100 µM | HCC 2998 > 100 µM | SK-OV-3 > 100 µM | SNB-19 > 100 µM | EKVX > 100 µM | SK-MEL-5 > 100 µM | CCRF-CEM > 100 µM | UACC-62 > 100 µM | SNB-78 > 100 µM | UO-31 > 100 µM
> 100 µM: HCT-15

CC(=O)OCc1c2ccccc2c(C)c2c1cc(F)c1ccccc12
inactive: Malme-3M 52.2 µM | OVCAR-4 24.2 µM | OVCAR-3 22.9 µM | SF-295 29.6 µM | SN12C 15.1 µM | OVCAR-5 42.7 µM | HCC 2998 25.9 µM | CAKI-1 31 µM | SK-OV-3 52.5 µM | SNB-19 28.9 µM | EKVX 34.4 µM | SK-MEL-5 25.5 µM | CCRF-CEM 12.2 µM | UACC-62 20.7 µM | SNB-78 14.3 µM | UO-31 38 µM

O=C1OC(Cc2ccccc2)(N2CCCC2=O)C1c1ccccc1 (stereo unspecified)
inactive: Malme-3M > 100 µM | OVCAR-4 > 100 µM | OVCAR-3 > 100 µM | SF-295 > 100 µM | SN12C 67.5 µM | OVCAR-5 > 100 µM | CAKI-1 > 100 µM | SK-OV-3 73.1 µM | SNB-19 47.2 µM | EKVX 48.6 µM | SK-MEL-5 51.5 µM | CCRF-CEM 43.9 µM | UACC-62 60 µM | SNB-78 > 100 µM | UO-31 > 100 µM

CC1(C)C=C(N2CCN(C3=CC(C)(C)NC(C)(C)C3)CC2)CC(C)(C)N1
> 100 µM: HCT-15
inactive: OVCAR-4 > 100 µM | OVCAR-3 > 100 µM | SF-295 > 100 µM | SN12C > 100 µM | OVCAR-5 > 100 µM | HCC 2998 > 100 µM | CAKI-1 > 100 µM | SK-OV-3 > 100 µM | SNB-19 > 100 µM | EKVX > 100 µM | SK-MEL-5 > 100 µM | CCRF-CEM > 100 µM | UACC-62 > 100 µM | SNB-78 > 100 µM | UO-31 > 100 µM
